Assay results reported in patent US10017477B2, “Janus kinase inhibitors and uses thereof” (Dana-Farber Cancer Institute, Inc., priority 2014, dated 2018).
Where “and” joins values, the source holds several entries; their conditions need not be identical. Identical values can stand only once. Like-named read-outs stand apart in the source and are kept apart here.

Columns and labels:
AURKA = molecular target: T1, AURKA (Homo sapiens, UniProt O14965); test: INVITROGEN Select Screening assay, enzymatic IC50, AURKA; format: biochemical
T1 construct: purchased INVITROGEN (Select Screening assay service)
T1 sequence (O14965 1-403): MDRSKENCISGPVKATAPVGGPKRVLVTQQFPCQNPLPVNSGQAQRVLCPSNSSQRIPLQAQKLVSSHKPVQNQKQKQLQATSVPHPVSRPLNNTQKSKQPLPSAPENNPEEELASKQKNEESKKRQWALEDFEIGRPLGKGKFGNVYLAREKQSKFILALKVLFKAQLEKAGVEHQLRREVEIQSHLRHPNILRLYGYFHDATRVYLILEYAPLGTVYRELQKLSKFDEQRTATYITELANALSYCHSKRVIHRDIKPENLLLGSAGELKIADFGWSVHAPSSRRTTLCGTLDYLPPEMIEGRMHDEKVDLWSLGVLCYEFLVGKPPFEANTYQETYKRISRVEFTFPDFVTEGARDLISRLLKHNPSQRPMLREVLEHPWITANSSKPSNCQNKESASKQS
Description: (§1) The in vitro activity of the compounds described herein in inhibiting JAK3 and other kinases were obtained using an INVITROGEN Select Screening assay as known in the art.

AURKB = molecular target: T2, AURKB (Homo sapiens, UniProt Q96GD4); test: INVITROGEN Select Screening assay, enzymatic IC50, AURKB; format: biochemical
T2 construct: purchased INVITROGEN (Select Screening assay service)
Description: as §1

JAK3 = molecular target: T3, JAK3 (Homo sapiens, UniProt P52333); test: INVITROGEN Select Screening assay, enzymatic IC50, JAK3; format: biochemical
T3 construct: purchased INVITROGEN (Select Screening assay service)
T3 sequence (P52333 1-1124): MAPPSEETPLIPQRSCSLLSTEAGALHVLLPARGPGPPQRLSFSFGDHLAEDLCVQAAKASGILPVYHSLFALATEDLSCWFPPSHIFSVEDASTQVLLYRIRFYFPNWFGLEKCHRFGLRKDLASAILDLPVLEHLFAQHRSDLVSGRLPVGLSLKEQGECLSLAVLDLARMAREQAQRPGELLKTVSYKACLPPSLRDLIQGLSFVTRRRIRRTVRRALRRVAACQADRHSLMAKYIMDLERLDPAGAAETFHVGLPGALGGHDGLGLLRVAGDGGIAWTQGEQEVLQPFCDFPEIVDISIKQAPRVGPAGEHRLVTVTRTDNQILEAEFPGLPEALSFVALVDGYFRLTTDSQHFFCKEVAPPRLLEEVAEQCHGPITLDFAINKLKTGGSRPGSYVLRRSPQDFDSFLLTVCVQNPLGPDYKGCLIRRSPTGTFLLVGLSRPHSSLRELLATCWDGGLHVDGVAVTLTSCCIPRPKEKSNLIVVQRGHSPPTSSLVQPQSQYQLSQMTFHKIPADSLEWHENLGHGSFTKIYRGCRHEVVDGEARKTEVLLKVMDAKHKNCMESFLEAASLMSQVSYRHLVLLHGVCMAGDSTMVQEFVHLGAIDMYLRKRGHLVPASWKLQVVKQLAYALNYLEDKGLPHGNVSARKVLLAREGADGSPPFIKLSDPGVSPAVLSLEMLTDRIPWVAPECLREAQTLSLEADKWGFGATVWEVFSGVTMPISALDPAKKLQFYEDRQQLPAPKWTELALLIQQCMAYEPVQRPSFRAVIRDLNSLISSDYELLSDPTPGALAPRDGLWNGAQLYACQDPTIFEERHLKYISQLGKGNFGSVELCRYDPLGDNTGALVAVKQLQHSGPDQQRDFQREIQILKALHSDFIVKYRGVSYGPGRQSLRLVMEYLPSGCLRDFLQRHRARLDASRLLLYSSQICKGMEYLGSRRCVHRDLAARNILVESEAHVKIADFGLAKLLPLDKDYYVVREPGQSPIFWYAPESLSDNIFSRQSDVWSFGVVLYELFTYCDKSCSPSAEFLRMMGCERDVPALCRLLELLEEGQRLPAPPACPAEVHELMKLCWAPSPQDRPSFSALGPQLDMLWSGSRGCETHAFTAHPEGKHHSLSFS

Ba/F3 JAK1 = molecular target: T4, Ba/F3 JAK1 (Homo sapiens, UniProt P23458); test: CellTiter-Glo cell proliferation, Ba/F3 JAK1; format: cell-based, murine; conditions: 72 hours; read-out: Ba/F3 IC50 JAK1
T4 construct: candidate: TEL (ETV6) N-terminal oligomerisation domain

Ba/F3 ABL = molecular target: T5, Ba/F3 ABL (Homo sapiens, UniProt P00519); test: CellTiter-Glo cell proliferation, Ba/F3 ABL; format: cell-based, murine; conditions: 72 hours; read-out: Ba/F3 IC50 ABL
T5 construct: candidates: BCR or TEL (ETV6)
Method: (§2) CellTiter-Glo® Luminescent cell viability assay (Promega) was used to assess cell survival following treatment with the compounds described herein. Cells were seeded into 384 well plates with the EL406 Combination Washer Dispenser (BioTek Instruments, Inc.), and the compounds were injected into the cells culture media with the JANUS Automated Workstation (PerkinElmer Inc.). Cells were treated with a series diluted inhibitors (20 to 0.04 μM) for 72 hours at 37° C. Luminescent measurement is performed using the 2104 Envision® Multilabel Reader (PerkinElmer Inc.). The cell lines employed include Ba/F3 (a murine interleukin-3 dependent pro-B cell line), NKL (a Natural Killer Cell Lymphoma (NKCL) cell line), CMK (an Acute Megakaryoblastic Leukemia (AMKL) cell line).

Ba/F3 JAK2 = molecular target: T6, Ba/F3 JAK2 (Homo sapiens, UniProt O60674); test: CellTiter-Glo cell proliferation, Ba/F3 JAK2; format: cell-based, murine; conditions: 72 hours; read-out: Ba/F3 IC50 JAK2
T6 construct: candidate: TEL (ETV6) N-terminal oligomerisation domain

Ba/F3 JAK3 = molecular target: T7, Ba/F3 JAK3 (Homo sapiens, UniProt P52333); test: CellTiter-Glo cell proliferation, Ba/F3 JAK3; format: cell-based, murine; conditions: 72 hours, read-out: Ba/F3 IC50 JAK3
T7 construct: candidate: TEL (ETV6) N-terminal oligomerisation domain
T7 sequence (P52333 1-1124): T3 sequence (P52333 1-1124)

Ba/F3 TYK2 = molecular target: T8, Ba/F3 TYK2 (Homo sapiens, UniProt P29597); test: CellTiter-Glo cell proliferation, Ba/F3 TYK2; format: cell-based, murine; conditions: 72 hours; read-out: Ba/F3 IC50 TYK2
T8 construct: The likeliest candidate is TEL (ETV6) N-terminal oligomerisation domain fused to the TYK2 kinase domain; BCR, another partner, or no partner are also possible

[1] = system: NKL (a Natural Killer Cell Lymphoma (NKCL) cell line); test: CellTiter-Glo cell proliferation, NKL cancer cell line; format: cell-based
Method: as §2

[2] = system: IL-4 signaling (JAK3 dependent); test: Profiling on primary immune cells, IL-4 signaling; format: cell-based
Aqueous solubility = format: physicochemical; conditions: aqueous medium; at 25° C.
[3] = system: EGFR (T790M) dependent Ba/F3; test: Proliferation of EGFR (T790M) dependent Ba/F3; format: cell-based, murine; conditions: Mus musculus, BaF3; at 200 nM
Method: as §2

[4] = Pharmacokinetics in mouse; format: in vivo; conditions: blood
[5] = system: CMK (an Acute Megakaryoblastic Leukemia (AMKL) cell line); test: CellTiter-Glo cell proliferation, CMK cancer cell line; format: cell-based
Method: as §2

T5 sequence (P00519 whole entry, change not shown): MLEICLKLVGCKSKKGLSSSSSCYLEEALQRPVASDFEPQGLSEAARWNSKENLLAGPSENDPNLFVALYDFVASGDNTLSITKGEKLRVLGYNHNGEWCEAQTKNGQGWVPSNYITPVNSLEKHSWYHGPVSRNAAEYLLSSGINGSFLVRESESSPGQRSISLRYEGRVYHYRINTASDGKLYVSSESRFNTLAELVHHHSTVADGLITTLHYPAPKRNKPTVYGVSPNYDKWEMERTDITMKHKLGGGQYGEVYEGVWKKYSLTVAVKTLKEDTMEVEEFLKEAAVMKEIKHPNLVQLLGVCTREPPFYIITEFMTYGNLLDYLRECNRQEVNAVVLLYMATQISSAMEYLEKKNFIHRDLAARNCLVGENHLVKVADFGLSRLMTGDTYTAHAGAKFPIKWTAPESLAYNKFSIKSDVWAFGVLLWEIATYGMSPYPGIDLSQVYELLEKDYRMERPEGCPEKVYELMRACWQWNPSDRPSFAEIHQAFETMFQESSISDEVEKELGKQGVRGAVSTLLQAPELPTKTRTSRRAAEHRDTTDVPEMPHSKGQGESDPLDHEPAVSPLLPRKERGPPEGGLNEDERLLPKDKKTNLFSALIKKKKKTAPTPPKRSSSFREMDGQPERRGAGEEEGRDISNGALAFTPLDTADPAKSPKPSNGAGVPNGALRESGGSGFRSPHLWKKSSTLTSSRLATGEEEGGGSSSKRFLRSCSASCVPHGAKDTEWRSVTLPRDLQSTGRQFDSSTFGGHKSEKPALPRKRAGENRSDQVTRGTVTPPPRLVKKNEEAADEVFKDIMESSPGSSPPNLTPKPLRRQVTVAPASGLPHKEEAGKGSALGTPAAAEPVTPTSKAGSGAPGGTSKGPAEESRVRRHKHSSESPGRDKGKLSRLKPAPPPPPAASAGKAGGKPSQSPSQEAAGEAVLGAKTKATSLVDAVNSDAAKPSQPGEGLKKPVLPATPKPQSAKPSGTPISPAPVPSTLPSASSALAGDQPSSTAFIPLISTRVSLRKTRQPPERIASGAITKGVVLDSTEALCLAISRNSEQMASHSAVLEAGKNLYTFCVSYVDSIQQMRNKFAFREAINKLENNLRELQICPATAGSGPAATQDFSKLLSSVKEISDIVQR
T6 sequence (O60674 whole entry, change not shown, the tested form may be a part): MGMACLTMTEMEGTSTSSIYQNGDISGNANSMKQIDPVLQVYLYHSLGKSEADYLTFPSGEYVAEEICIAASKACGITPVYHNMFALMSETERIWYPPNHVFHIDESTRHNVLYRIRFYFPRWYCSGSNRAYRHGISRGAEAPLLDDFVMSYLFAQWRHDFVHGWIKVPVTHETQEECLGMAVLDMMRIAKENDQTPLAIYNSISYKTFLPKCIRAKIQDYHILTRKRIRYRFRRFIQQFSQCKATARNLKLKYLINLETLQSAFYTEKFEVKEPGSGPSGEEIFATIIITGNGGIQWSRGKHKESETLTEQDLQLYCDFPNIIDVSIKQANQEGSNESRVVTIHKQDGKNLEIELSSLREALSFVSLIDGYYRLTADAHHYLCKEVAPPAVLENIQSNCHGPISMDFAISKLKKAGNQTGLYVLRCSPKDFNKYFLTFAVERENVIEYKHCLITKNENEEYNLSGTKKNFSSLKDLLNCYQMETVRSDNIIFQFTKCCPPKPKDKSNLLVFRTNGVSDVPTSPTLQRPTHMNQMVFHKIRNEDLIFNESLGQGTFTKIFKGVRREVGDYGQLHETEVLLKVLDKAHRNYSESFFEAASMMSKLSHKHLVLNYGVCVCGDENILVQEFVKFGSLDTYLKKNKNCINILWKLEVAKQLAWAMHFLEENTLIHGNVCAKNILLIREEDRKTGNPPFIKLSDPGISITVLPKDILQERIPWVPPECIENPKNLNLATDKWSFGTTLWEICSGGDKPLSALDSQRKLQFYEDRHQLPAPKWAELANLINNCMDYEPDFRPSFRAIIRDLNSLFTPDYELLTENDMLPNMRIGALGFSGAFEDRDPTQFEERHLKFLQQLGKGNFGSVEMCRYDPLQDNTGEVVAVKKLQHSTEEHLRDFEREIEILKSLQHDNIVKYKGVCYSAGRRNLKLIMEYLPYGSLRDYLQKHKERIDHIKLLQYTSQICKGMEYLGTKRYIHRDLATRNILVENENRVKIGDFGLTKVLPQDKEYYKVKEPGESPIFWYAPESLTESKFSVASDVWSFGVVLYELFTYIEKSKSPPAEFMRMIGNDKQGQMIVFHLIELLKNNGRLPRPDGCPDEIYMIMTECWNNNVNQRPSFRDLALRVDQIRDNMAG
T4 sequence (P23458 whole entry, change not shown, the tested form may be a part): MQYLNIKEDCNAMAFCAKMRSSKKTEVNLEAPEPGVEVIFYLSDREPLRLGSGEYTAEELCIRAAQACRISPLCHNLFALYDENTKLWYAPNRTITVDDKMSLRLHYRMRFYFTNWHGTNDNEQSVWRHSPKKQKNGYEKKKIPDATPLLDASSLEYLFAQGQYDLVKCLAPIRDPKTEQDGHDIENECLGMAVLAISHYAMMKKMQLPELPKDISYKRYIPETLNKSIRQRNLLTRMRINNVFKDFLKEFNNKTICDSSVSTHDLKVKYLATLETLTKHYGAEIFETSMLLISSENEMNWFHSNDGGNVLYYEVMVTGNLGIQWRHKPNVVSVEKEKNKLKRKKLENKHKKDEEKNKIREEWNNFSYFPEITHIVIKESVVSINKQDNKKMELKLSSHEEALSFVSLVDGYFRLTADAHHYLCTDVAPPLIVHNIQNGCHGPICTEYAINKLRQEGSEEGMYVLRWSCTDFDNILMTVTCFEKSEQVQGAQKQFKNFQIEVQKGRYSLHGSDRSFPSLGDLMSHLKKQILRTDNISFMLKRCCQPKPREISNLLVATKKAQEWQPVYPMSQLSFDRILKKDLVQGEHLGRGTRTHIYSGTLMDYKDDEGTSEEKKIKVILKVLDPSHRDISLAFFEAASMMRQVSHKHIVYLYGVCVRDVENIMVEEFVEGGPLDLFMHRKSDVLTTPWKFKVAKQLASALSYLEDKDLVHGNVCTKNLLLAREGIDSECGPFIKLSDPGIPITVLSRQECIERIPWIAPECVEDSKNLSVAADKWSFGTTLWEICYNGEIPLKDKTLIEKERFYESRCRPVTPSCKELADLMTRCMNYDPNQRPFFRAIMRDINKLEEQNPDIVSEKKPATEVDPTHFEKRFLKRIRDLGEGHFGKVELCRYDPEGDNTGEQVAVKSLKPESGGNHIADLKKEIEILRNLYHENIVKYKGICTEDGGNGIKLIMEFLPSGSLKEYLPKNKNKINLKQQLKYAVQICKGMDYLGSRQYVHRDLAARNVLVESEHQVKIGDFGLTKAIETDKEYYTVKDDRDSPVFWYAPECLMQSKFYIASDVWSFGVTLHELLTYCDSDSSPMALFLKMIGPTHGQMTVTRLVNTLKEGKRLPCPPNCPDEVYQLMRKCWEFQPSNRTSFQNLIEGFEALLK
T8 sequence (P29597 whole entry, change not shown, the tested form may be a part): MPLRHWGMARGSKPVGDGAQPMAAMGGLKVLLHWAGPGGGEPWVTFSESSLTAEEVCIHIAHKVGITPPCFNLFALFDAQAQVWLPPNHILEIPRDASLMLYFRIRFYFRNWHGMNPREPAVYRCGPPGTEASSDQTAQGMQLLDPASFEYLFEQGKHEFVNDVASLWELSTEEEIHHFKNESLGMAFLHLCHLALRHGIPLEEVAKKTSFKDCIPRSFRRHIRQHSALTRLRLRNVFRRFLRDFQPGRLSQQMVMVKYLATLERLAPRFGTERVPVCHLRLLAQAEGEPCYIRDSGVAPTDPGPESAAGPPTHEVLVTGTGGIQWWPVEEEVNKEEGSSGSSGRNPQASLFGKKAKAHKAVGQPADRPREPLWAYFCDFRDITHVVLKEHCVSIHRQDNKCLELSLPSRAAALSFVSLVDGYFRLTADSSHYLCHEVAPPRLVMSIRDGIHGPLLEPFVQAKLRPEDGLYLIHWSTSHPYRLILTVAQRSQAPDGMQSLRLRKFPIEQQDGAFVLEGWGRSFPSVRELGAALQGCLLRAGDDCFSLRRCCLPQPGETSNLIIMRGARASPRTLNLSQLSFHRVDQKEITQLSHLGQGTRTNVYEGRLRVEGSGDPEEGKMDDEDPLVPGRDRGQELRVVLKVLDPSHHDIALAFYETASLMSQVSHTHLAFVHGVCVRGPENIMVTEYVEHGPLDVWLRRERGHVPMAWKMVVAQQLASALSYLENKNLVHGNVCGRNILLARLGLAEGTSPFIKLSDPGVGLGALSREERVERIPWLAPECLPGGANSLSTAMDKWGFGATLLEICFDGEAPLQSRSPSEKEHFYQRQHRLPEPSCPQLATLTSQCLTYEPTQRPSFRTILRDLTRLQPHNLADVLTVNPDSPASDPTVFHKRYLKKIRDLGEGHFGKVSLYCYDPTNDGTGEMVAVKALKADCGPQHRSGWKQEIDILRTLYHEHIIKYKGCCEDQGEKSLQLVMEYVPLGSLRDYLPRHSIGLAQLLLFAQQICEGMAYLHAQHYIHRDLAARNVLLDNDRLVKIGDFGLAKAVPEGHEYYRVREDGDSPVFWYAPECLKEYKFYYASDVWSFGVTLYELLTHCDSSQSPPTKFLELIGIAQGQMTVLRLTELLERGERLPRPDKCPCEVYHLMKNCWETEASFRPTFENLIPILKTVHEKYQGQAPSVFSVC
T2 sequence (Q96GD4 whole entry): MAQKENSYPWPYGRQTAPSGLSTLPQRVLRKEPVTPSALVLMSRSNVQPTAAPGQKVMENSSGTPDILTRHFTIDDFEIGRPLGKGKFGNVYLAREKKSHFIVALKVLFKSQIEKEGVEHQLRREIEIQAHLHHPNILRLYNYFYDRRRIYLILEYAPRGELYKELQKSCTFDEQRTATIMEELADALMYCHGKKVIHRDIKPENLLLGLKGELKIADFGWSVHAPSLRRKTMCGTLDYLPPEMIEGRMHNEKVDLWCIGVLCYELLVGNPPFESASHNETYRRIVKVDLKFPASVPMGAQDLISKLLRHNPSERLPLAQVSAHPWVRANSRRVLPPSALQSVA

| SMILES | IC50 (JAK3) | GI50 (Ba/F3 JAK1) | GI50 (Ba/F3 ABL) | GI50 (Ba/F3 JAK2) | GI50 (Ba/F3 JAK3) | GI50 (Ba/F3 TYK2) | also measured |
| --- | --- | --- | --- | --- | --- | --- | --- |
| C=CC(=O)Nc1ccc(CNc2nc(Nc3ccc(N4CCOCC4)cc3)ncc2Cl)cc1 [Compound 13] | – | – | – | – | – | – | IC50 (AURKA): 173 nM; IC50 (AURKB): 835 nM |
| C=CC(=O)Nc1ccc(CNc2nc(Nc3ccc(N4CCN(C)CC4)cc3OC)ncc2Br)cc1 [Compound 3] | 33.2 nM | – | – | – | – | – | – |
| C=CC(=O)Nc1ccc(CNc2nc(Nc3ccc(N4CCN(C)CC4)cc3OC)ncc2C(F)(F)F)cc1 [Compound 4] | 57.2 nM | – | – | – | – | – | – |
| C=CC(=O)Nc1ccc(CNc2nc(Nc3ccc(N4CCN(C)CC4)c(F)c3)ncc2Cl)cc1 [Compound 16] | 2.79 nM | 0.379 µM | 0.453 µM | 0.538 µM | 17.8 nM | 0.284 µM | – |
| C=CC(=O)Nc1cccc(CNc2nc(Nc3cc(F)c(C4CCOCC4)c(F)c3)ncc2Cl)c1 [Compound 50] | 20.5 nM | > 50 µM | > 50 µM | > 50 µM | 100 nM | > 50 µM | – |
| C=CC(=O)Nc1ccc(CNc2nc(Nc3ccc(N4CCOCC4)c(F)c3)ncc2Cl)cc1 [Compound 14] | 3.5 nM | 1.29 µM | 2.52 µM | 1.87 µM | 30.5 nM | 0.607 µM | IC50 (AURKA): 279 nM; IC50 (AURKB): 1310 nM |
| C=CC(=O)Nc1ccc(CN2C(=O)N(C)Cc3cnc(Nc4ccc(N5CCN(C)CC5)cc4)nc32)cc1 [Compound 35] | 30.4 nM | 87.6 µM | 8.84 µM | 14.6 µM | 880 nM | 10.1 µM | – |
| C=CC(=O)Nc1cccc(CNc2nc(Nc3cc(OC)c(N4CCN(C)CC4)cc3OC)ncc2Cl)c1 [Compound 57] | 170 nM | – | – | – | – | – | – |
| C=CC(=O)Nc1ccc(CNc2cc(Nc3ccc(N4CCN(C)CC4)cc3)ncn2)cc1 [Compound 32] | – | – | 22.4 µM | – | – | – | – |
| C=CC(=O)Nc1ccc(CNc2nc(Nc3ccc(N4CCN(C)CC4)cc3)ncc2Cl)cc1 [Compound 15] | 0.689 nM | 0.172 µM | 0.158 µM | 0.2 µM | 10.6 nM | 0.144 µM | – |
| C=CC(=O)Nc1cccc(CNc2nc(Nc3ccc(N4CCN(C)CC4)cc3OC)ncc2Cl)c1 [Compound 2, N-(3-(((5-chloro-2-((2-methoxy-4-(4-methylpiperazin-1-yl)phenyl)amino)pyrimidin-4-yl)amino)methyl)phenyl)acrylamide] | – | – | – | – | 60.4 nM and 62.6 nM | – | IC50 ([1]; 72 hours, read-out: Cancer cell lines IC50 NKL): 19.7 nM; EC50 ([1]; IL-2 dependent NKL cell line, read-out: anti-proliferative potency EC50, NKL): 20 nM; effect on IL-4 signaling [2]: blocks IL-4 signaling; solubility (Aqueous solubility): > 250 µM; GI50 (Ba/F3 JAK3; listed as compound 2): 60 nM; inhibition at 0.2 µM [3]: > 90%; Cmax ([4]; PO dose at 10 mg/kg): 294 ng/mL; Tmax ([4]; PO dose at 10 mg/kg): 2 h; bioavailability ([4]; PO dose at 10 mg/kg): 23%; Vd ([4]; intravenous dose at 1 mg/kg, read-out: Vdss): 1.2 L/kg; IC50 ([5]; 72 hours, read-out: Cancer cell lines IC50 CMK): 8.28 µM; anti-proliferative potency on AMKL cell line (in words) ([5]; cell line with activating mutation A572V of JAK3): doesn't shown anti-proliferative potency |
| C=CC(=O)Nc1cccc(CNc2cc(Nc3cnn(C)c3)ncn2)c1 [Compound 38] | – | – | – | – | – | 78 µM | – |
| C=CC(=O)Nc1cccc(CNc2nc(Nc3cnn(CCOCCOCCOCCNC(=O)CCCC[C@@H]4SC[C@@H]5NC(=O)N[C@@H]54)c3)ncc2Cl)c1 [Compound 93] | – | 18.7 µM | > 50 µM | > 50 µM | – | 15.4 µM | – |
| C=CC(=O)Nc1ccc(CN2C(=O)NCc3cnc(Nc4ccc(N5CCN(C)CC5)cc4)nc32)cc1 [Compound 34] | 1.21 nM | > 10 µM | 29.2 µM | 30.1 µM | 576 nM | 29.5 µM | – |
| C=CC(=O)Nc1cccc(CN2CCc3cnc(Nc4cnn(C)c4)nc32)c1 [Compound 48] | 8040 nM | 56.4 µM | > 50 µM | 18.1 µM | > 50000 nM | 8.85 µM | – |
| C=CC(=O)Nc1cccc(CNc2nc(Nc3cc(Cl)c(C4CCOCC4)c(Cl)c3)ncc2Cl)c1 [Compound 45] | 100 nM | – | – | – | – | – | – |
| C=CC(=O)Nc1cccc(CNc2nc(Nc3ccc(N4CCN(C)CC4)cc3OC)ncc2C2CC2)c1 [Compound 91] | 220 nM | – | – | – | – | – | – |
| C=CC(=O)Nc1cccc(CNc2cc(Nc3ccc(N4CCN(C)CC4)cc3OC)ncn2)c1 [Compound 25] | 15.3 nM | 2.88 µM | 4.55 µM | 2.3 µM | 246 nM | 1.53 µM | – |
| C=CC(=O)Nc1cccc(CN2C(=O)N(C)Cc3cnc(Nc4cnn(C)c4)nc32)c1 [Compound 43] | 20.9 nM | 14 µM | > 50 µM | > 50 µM | 400 nM | 50.1 µM | – |
| CCC(=O)Nc1ccc(CNc2nc(Nc3ccc(N4CCN(C)CC4)cc3OC)ncc2Cl)cc1 [Compound 5] | 5420 nM | – | – | – | – | – | – |
